From patent EP3463364B1, “PYRAZINE DERIVATIVES FOR USE IN THE TREATMENT OF DISEASES ASSOCIATED WITH CELL CYCLE DYSREGULATION” (University of Patras, priority 2016, dated 2017)

Legend:
[1] = tested on: MCF7 cancer cells; assay: Cell cycle progression by propidium iodide flow cytometry, cancer cells; format: cell-based; conditions: 100 µM, 23hrs
Experimental: (§1) Since the proteins Geminin and Cdtl are key regulators of the cell cycle, the effect of the synthetic compound on the development of the cancer cell and normal cell cycle was studied. Staining of the genetic material of the cells was performed with propidium iodide and the technique of flow cytometry was applied for their separation, based on the amount of genetic material.
(§2) MCF7 cells were used as cancer cells, whereas primary cells and particularly embryonic mouse fibroblasts (Mouse Embryonic Fibroblasts, MEFs) were used as normal cells. The cells were incubated with the synthetic chemical compound AF-615/30368009 at a concentration of 100 µM and cultured for 23hrs in 100-mm dishes, to 80% confluency. Cells which had been incubated with only DMSO were used as a negative control sample. The next day of the incubation, cells were harvested using trypsin. […] The experiments were conducted using a Becton Dickinson flow cytometer and the data were analyzed by the WinMDi software version 2.8.
(§3) The graphs shown in Fig. 5 are representative of at least two independent experiments. The x axis represents the intensity of the fluorescence of propidium iodide and proportionally the amount of DNA content of the cells, while the y-axis corresponds to the number of events for each phase of the cell cycle.

[2] = tested on: Mouse Embryonic Fibroblasts, MEFs; assay: Cell cycle progression by propidium iodide flow cytometry, normal (primary) cells; format: cell-based; conditions: 100 µM, 23hrs, compared to DMSO control (Fig. 5D vs 5C)
Experimental: as §1
as §2, with “2.8. […]” for “2.8.”
as §3

Compound: O=C(NNC(=S)N1CCOCC1)c1cnccn1 [AF-615/30368009, N'-(morpholine-4-carbothioyl)pyrazine-2-carbohydrazide]
- percentage (%) of cells in G0/G1 and S phases ([1]; MCF7, compared to DMSO control (Fig. 5B vs 5A)): significant increase
- population of cells corresponding to the G2/M phase of the cell cycle ([1]; MCF7, in comparison to DMSO control (Fig. 5B vs 5A)): extremely limited
- percentage of cells in G2/M phase [2]: mild reduction
- percentage of cells in phase G0/G1 and S [2]: no significant change
